# Assay: gradient 5% acetonitrile 3 min, to 50% in 2 min, to 85% in 15 min, held 3 min, 100 µL/min
# Conditions: column: Zorbax Extend-C18 2.1 x 50 mm; eluents: water / acetonitrile, 0.1% formic acid
# Method in brief: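 Retention time was recorded from adduct peaks, which were picked computationally and each inspected manually. Pure standards ran in mixtures of ~100 molecules on HPLC coupled to a quadrupole time-of-flight mass spectrometer, in positive and negative ionization mode, through a Zorbax Extend-C18 column (2.1 × 50 mm, 1.8 μm) at 100 μL/min. Eluents were water and acetonitrile, each with 0.1% formic acid.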
row,RP-LC retention time [s],Compound
1,882,Cc1ccc(CNC(=O)C(C)n2c3ccccc3c3cnn(C)c(=O)c32)o1 (configuration not stated)
2,694,COc1ccc(-c2nc3cc(C)ccn3c2NC(=O)COc2ccccc2)cc1
3,910,COc1ccc(NC2=NS(=O)(=O)C(c3ccccc3)=C2C)c(OC)c1
4,860,Cc1nc(-c2csc(S(=O)(=O)N3CCC(C(=O)NCCc4cccs4)CC3)c2)no1
5,881,COc1ccc(-c2nc(-c3ccc4ncn(C(C)C)c4c3)no2)c(C)c1
6,927,CCOc1ccc(/C=C/C(=O)Nc2nc(-c3ccc4c(c3)NC(=O)C(C)O4)cs2)cc1OC (configuration not stated)
7,638,O=C(CCc1c(-c2ccc(Cl)cc2)nc2ccccn12)NC1CCCC1
8,797,CC(C)c1ccc(NC(=O)C(=O)NCC2(CO)CC2)cc1
9,644,Cc1ccc2nc(NC(C)(C)CO)nc(-c3ccccc3)c2c1
10,683,COCC(=O)Nc1cnc(N2CCCCC2)nc1
11,632,CC(C)n1c(CCNC(=O)c2c(F)cccc2F)nc2cccnc21
12,748,COC1CCC12CCN(C(=O)c1cccs1)CC2 (configuration not stated)
13,1020,CC(C)c1noc(-c2ccc(-n3cnc(C(=O)Nc4ccc(F)cc4)c3)nc2)n1
14,541,COc1ccc(OC)c(CNC(=O)c2cn3ccc(C)cc3n2)c1
15,725,Cc1ccc(NC(=O)N2CCN(Cc3nc4cc(C)ccc4o3)CC2)cc1
16,616,CS(=O)(=O)N1CCC(C(=O)NCc2ccsc2)CC1
17,1130,Cc1cccc(-c2nc(-c3ccc4c(c3)oc(=O)n4C)no2)c1
18,800,COc1c(C)c2c(c(O)c1C/C=C(\C)CCC(=O)O)C(=O)OC2
19,584,O=C(NCc1ccco1)c1ccc(NC(=O)C2CC2)cc1N1CCCCCC1
20,762,O=C(CCC1CCCC1)Nc1cccc(-c2nnc3n2CCCC3)c1
21,650,c1ccc(-c2ccc3c(c2)NCCN3)cc1
22,676,C[C@@H]1CN(C(=O)NCc2ccco2)C[C@H]1c1nc(-c2ccncc2)no1

row,RP-LC retention time [s],Compound
1,759,Cc1oc(C2CCN(S(=O)(=O)Cc3ccccc3)CC2)nc1C(=O)N1CCOCC1
2,600,O=C(CSc1ccncc1)N1CC2CN(S(=O)(=O)c3cccc(F)c3)CC(C1)O2
3,813,Cc1cc(N2CCCC2)nc(N2CCN(C(=O)c3ccc(C(C)(C)C)cc3)CC2)n1
4,967,O=C(Nc1ccc(Br)cc1)C1CCCN1S(=O)(=O)c1ccc(F)cc1 (configuration not stated)
5,770,O=C(OCc1ccncc1)c1cn(-c2cccc(Cl)c2)c(=O)c2ccccc12
6,674,CCn1ccc2cc(S(=O)(=O)N3CCC(C(=O)N4CCN(c5ccccn5)CC4)CC3)ccc21
7,1220,CC1=NS(=O)(=O)N(Cc2ccccc2)C=C1C(=O)OCc1noc(-c2ccc(C)c(C)c2)n1
8,744,CCOc1ccccc1CNC(=O)CCc1c(-c2ccc(Br)cc2)nc2ccccn12
9,973,Cc1nn(CC(=O)NCCc2ccco2)c(=O)c2c(-n3cccc3)n(-c3ccc(Cl)cc3)nc12
10,720,CN1CCN(S(=O)(=O)c2c[nH]c(=O)[nH]c2=O)CC1
11,1020,Cc1ccc(C)c(NC(=O)C2CCN(S(=O)(=O)c3cc(-c4noc(C5CC5)n4)cs3)CC2)c1
12,704,COC(=O)c1cnn(-c2ccc(C)cc2)c1N
13,745,O=C(Nc1ccccc1F)N1CCN(Cc2nc3ccc(Cl)cc3o2)CC1
14,914,COC(=O)c1ccc(-c2nc3cnccn3c2Nc2c(C)cccc2C)cc1
15,1150,Cc1sc(NC(=O)c2cccc(F)c2)nc1-c1ccccc1
16,723,COCCNC(=O)NCc1ccc2c(c1)N(C(=O)c1ccc(C)cc1)CC2
17,642,CS(=O)(=O)N1CCC(C(=O)N2CCCC(c3nnc(-c4cccs4)o3)C2)CC1 (configuration not stated)
18,954,O=C1c2ccccc2C(=O)N1c1ccc(OC(F)(F)F)cc1
19,690,CCN1CCn2cc(S(=O)(=O)Nc3ccccc3OC)cc2C1=O
20,866,O=C(CCn1nnc2cc(-c3noc(COc4ccc(Cl)cc4)n3)ccc21)N1CCOCC1
21,1190,O=C(Nc1cccc(Br)c1)C1CCN(c2nccnc2Sc2ccccc2)CC1
22,857,Cc1ccc(-n2c(=O)n(C)c(=O)c3cc(C(=O)Nc4ccccc4C(N)=O)cnc32)cc1

row,RP-LC retention time [s],Compound
1,952,Cc1ccc(Cn2c(N3CCCC(C(=O)NCc4cccs4)C3)nc3ccsc3c2=O)cc1 (configuration not stated)
2,675,CC(=O)Nc1ccc(CC(=O)N2CCCC(c3nc(-c4ccc(NC(C)=O)cc4)no3)C2)cc1 (configuration not stated)
3,850,O=C(Cn1nc2c(N3CCSCC3)nccn2c1=O)NCCc1ccc(Cl)cc1
4,563,O=C(c1cccnn1)N1C[C@@H](COCC2CC2)[C@H](c2ccncc2)C1
5,968,CCC1CN(C(=O)Nc2ccc(OC)cc2)c2ccccc2O1 (configuration not stated)
6,706,CCOC(=O)c1c(C)n(CCNC(C)=O)c2cc(Br)c(OC)cc12
7,722,COc1ccc(OC)c(CNC(=O)C2CCCN(c3nnc4c(Cl)cccn34)C2)c1 (configuration not stated)
8,995,CC(C)(C)NC(=O)NC1CCN(c2nc3cccnc3n(Cc3ccccc3)c2=O)CC1
9,790,CCCCNc1nc(N)ncc1[N+](=O)[O-]
10,696,CC(C(=O)N1CCN(c2ccccn2)CC1)n1c(=O)c(C(F)(F)F)nc2ccccc21 (configuration not stated)
11,854,Cc1nc(-c2noc(-c3ccc(F)cc3)n2)cn1CC(=O)NC(C)c1ccccc1 (configuration not stated)
12,1090,CCCN1C(=O)COc2cc(-c3noc(C(=O)NCCCc4ccccc4)n3)ccc21
13,766,COc1ccc(Cl)cc1NC(=O)CSc1ccc2nnc(-c3cccs3)n2n1
14,839,Cc1[nH]c(C(=O)N2CCC(CC(=O)NCc3cccc(F)c3)CC2)c(C)c1C(=O)OC(C)C
15,816,COc1ccc(-c2noc(C3CCCN3C(=O)C3CC3)n2)cc1 (configuration not stated)
16,727,O=C(NCCS(=O)(=O)N1CCN(c2ncccn2)CC1)c1cc2ccccc2o1
17,710,CCCNC(=O)C1CCCN(c2ccc(SCC(=O)Nc3ccc(Br)cc3)nn2)C1 (configuration not stated)
18,1130,CCCn1c(=O)c(C)nc2cc(-c3noc(-c4ccccc4F)n3)ccc21
19,856,COc1ccc(NC(=O)N2CCC3(CC2)N=C(c2cccc(Cl)c2)C(=O)N3)c(OC)c1
20,1210,Cc1nc2c(sc3nc(-c4ccccc4)ccc32)c(=O)n1CC(=O)Nc1cccc(C(C)C)c1
21,866,Cc1nnc2ccc(S(=O)(=O)N(Cc3ccccc3)c3cccc(F)c3)cn12
22,781,COc1cc(C)c(C(C)C)cc1S(=O)(=O)Nc1cccc(C)n1

row,Compound,RP-LC retention time [s]
1,Cc1noc(C)c1CC(=O)N1CCC2(CC1)N(CC1CC1)C(=O)CS2=O (configuration not stated),613
